From patent US9783513B2, “STAT3 inhibitors and their anticancer use” (Ohio State Innovation Foundation, priority 2012, dated 2017)
Entries after “also recorded” stand apart in the source; their conditions may differ.

Assays:
[1] = target: T1, PLK3 (Homo sapiens, UniProt Q9H4B4); assay: Kinase screening (KINOMESCAN), PLK3; assay type: binding
T1 construct: purchased KINOMESCAN, San Diego, Calif
Method: The potential off-target activity of a representative compound was assessed in a screen against 96 protein and lipid kinases (see FIGS. 56 and 60). The test compound, LY-5, was assessed at 1000 and 5000 nM concentration using in vitro kinase assays. The assays were carried out using standard techniques known to one skilled in the art (KINOMESCAN™, San Diego, Calif.). The data in FIG. 60 show the % inhibition for the tested concentrations of LY-5 in the panel of kinases assessed. The interaction map provides a visualization of the relationship of these inhibition data from FIG. 60 to various kinase families.

[2] = tested on: IL-6 induced STAT3 phosphorylation; assay: Western blot, IL-6 induced STAT3 phosphorylation; assay type: cell-based, human
Method: RH30 cells were treated with DMSO, LY-5 (0.25-1 μM) and LY-3 (0.5-2.5 μM) prepared as a 20 mM stock solution in sterile DMSO at 60% to 80% confluence in the presence of 10% FBS for 24 hours. The sarcoma cell line EW8 was treated with DMSO and LY-5 (0.5-2.5 μM) prepared as a 20 mM stock solution in sterile DMSO at 60% to 80% confluence in the presence of 10% FBS for 24 hours. MCF-7 cells and DAOY cells were treated with DMSO, 25-50 ng/ml of IL-6, LY-5 (0.25-1 μM) or LY-3 (0.5-2.5 μM) prepared as a 20 mM stock solution in sterile DMSO, protein expressions of P-STAT3 (Tyr705) and STAT3 were tested. DAOY cells were treated with DMSO, 50 ng/ml of IFN-γ, LY-5 (1-5 μM) prepared as a 20 mM stock solution in sterile DMSO, protein expressions of P-STAT3 (Tyr705) and STAT3 were tested. MCF-7 cells were treated with DMSO, 50 ng/ml of OSM, LY-5 (1-2.5 μM) or LLL12 (1-2.5 μM) prepared as a 20 mM stock solution in sterile DMSO, protein expressions of P-STAT3 (Tyr705), P-STAT1, P-STAT5, P-ERK (T202/Y204), P-AKT, STAT3 and STAT1 were tested.
The cells were harvested and lysed in cold radioimmunoprecipitation assay (RIPA) lysis buffer containing […] and phosphatase inhibitor cocktail, and were subjected to SDS-PAGE. Then they were transferred to PVDF membrane. Membranes were probed with primary antibodies (1:1,000) and horseradish peroxidase (HRP)-conjugated secondary antibody (1:10,000) (Cell Signaling Technology, Beverly, Mass.). Membranes were analyzed using Enhanced Chemiluminescence Plus reagents and scanned with the Storm Scanner (Amersham Pharmacia Biotech, Inc., Piscataway, N.J.).
MCF-7 breast cancer cells were seeded in 10 cm plates and allowed to adhere overnight. The following day, the cells were serum-starved. The cells were then left untreated or were treated with LY-5 (0.25-1 μM) and LY-3 (0.5-2.5 μM) prepared as a 20 mM stock solution in sterile DMSO or DMSO. After 5 hours, the untreated and LY-5 and LY-3 treated cells were stimulated by IL-6 (25 ng/mL). The cells were harvested after 30 minutes and analyzed by Western blot. DAOY medulloblastoma cancer cells were seeded in 10 cm plates and allowed to adhere overnight. The following day, the cells were serum-starved. The cells were then left untreated or were treated with LY-5 (1-5 μM) prepared as a 20 mM stock solution in sterile DMSO or DMSO. After 2 hours, the untreated and LY-5 treated cells were stimulated by IL-6 (25 ng/mL). The cells were harvested after 30 minutes and analyzed by Western blot.

[3] = tested on: IGF2, IGF-1 or LIF induced STAT3 phosphorylation; assay: Western blot, IGF and LIF induced STAT3 phosphorylation; assay type: cell-based, human
[4] = tested on: HUVEC; assay: HUVEC migration assays (wound-healing, Boyden chamber); assay type: cell-based, human; details: 300 nM, VEGF 10 ng/ml
Method: Endothelial cell (HUVEC) migration was monitored using the wound-healing assay described by Thaloor et al. (Cell Growth Differ. (1998) 9(4):305-12). Briefly, 3×10^4 cells/well were seeded in 24-well plates using M200 medium with LSGS. After cells had attached and formed a monolayer on plate completely, we scraped the cells with same width using yellow tip. After scraped, the cells were washed with PBS and incubated with the medium containing VEGF (10 ng/ml)) with or without LY5 (300 nM). Width was photographed at different time intervals (0 and 24 hours) with a magnification of 40× with a microscopic camera system (Leitz Diavert microscope, Leica, Bensheim; AxioCam, Carl Zeiss, Gottingen, Germany).
HUVECs were grown in M200 containing LSGS until 40-50% confluent. Cells were washed with PBS, trypsinized for 5-10 min, collected with 0.2% FBS and centrifuged at 300 g for 5 min. Cells were then resuspended with 0.2% FBS and counted using a Beckman Coulter Z2. A volume of 400 μl of this mix containing 5×10^5 cells was placed on to Boyden Chambers (8 μm pore) inserts with or without LY5 (300 nM) in 24 well plates with 500 μl of M200. VEGF (R and D Systems) in 1% BSA was added to a final concentration of 10 ng/ml in the lower chambers as a chemo-attractant. Cells were pretreated with antibody for 30 min in suspension, then placed in the chambers and incubated at 37° C. 5% C02 for 18-24 hrs. The Boyden chamber porous membranes were then blotted and fixed with 3.7% formaldehyde containing 0.05% crystal violet for 30 min. After repeated washes with distilled water the membranes were air-dried. […] The remainder of the cells on top of the membrane and within the Boyden chamber, were separately incubated in 80% methanol, shaken at 500 rpm for 30 min, and the extracted dye measured at 570 nm. Migration was quantified using the ratio of the migrated cells over the total cells (migrated plus remaining cells) to determine the fraction of migrating cells in each individual experiment. […]

T1 sequence (Q9H4B4 whole entry): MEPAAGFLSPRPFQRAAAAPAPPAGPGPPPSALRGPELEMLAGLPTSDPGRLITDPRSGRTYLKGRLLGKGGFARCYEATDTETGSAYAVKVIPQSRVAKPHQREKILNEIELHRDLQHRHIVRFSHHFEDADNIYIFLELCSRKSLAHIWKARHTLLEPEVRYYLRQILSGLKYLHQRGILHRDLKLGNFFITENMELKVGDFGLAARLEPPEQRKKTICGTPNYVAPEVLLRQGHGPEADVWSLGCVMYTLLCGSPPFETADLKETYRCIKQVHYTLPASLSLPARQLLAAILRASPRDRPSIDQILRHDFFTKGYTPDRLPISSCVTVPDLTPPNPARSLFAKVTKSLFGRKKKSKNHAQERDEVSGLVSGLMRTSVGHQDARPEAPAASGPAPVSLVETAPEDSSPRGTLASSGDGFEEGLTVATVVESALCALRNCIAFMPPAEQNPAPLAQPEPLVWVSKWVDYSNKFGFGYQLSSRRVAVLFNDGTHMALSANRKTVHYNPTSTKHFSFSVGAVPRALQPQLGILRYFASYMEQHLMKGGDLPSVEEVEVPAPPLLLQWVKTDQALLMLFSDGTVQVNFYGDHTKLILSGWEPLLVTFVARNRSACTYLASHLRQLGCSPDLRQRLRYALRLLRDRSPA

SMILES: NS(=O)(=O)c1cccc2c1C(=O)C=C(Nc1cccnc1)C2=O [LY-5, 5,8-dioxo-6-(pyridin-3-ylamino)-5,8-dihydronaphthalene-1-sulfonamide]
- inhibition ([1]; at 1000 nM): no inhibition
- activity against PLK3 ([1]; at 5 μM, FIG. 60): some activity
- inhibition at 5 µM ([1]; at 5000 nM): 72%
- IL-6 induced STAT3 phosphorylation ([2]; DAOY, up to 5 μM, 2 h): inhibits; also recorded: blocked the stimulation
- IL-6 induced STAT3 phosphorylation ([2]; DLD1, 0-5 μM, 2 h, IL-6 50 ng/mL): inhibits
- IL-6 induced STAT3 phosphorylation ([2]; MCF-7, LY-3 0.5-2.5 μM, LY-5 0.25-1 μM, 5 h, IL-6 25 ng/mL): inhibit; also recorded: blocked the stimulation
- IL-6 induced STAT3 phosphorylation at Y705 ([2]; SJSA, 0-2.5 μM, 3 h): inhibits
- IGF-1 induced STAT3 phosphorylation at Y705 ([3]; DAOY, 0-5 μM, 2 h): inhibits
- LIF induced STAT3 phosphorylation at Y705 ([3]; DAOY, 0-5 μM, 2 h): inhibits
- IGF2 induced STAT3 phosphorylation ([3]; SJSA, 0-2.5 μM, 4 h): inhibits
- VEGF induced HUVEC cell migration (wound width) [4]: decreased cell migration
- percentage of migration (migrated cells over total cells) [4]: decreased percentage of migration
- VEGF induced HUVEC cell migration (wound width) ([4]; listed as LY5): significantly blocked
